# Columns and labels:
# Type in all cases: cell-based, human
# [1] = test system: U-266 Multiple Myeloma cell line; experiment: DIMSCAN cytotoxicity, fenretinide + L-threo-sphinganines 3:1 (Example B3); conditions: 96 h
# Experimental: (§1) Cytotoxicity Assay—Once again, cytotoxicity is determined using the DIMSCAN assay system (R. Proffitt et al., Cytometry 24, 204-213 (1996); T. Frgala et al., Mol Cancer Ther. 6:886-97, 2007). The system employs digital imaging microscopy to quantify viable cells, which selectively accumulate fluorescein diacetate to become brightly fluorescent. The system is capable of measuring cytotoxicity over a 4-5 log dynamic range by quenching the residual fluorescence of dead and dying cells with eosin Y and quantifying the total fluorescence of viable cells using digital thresholding. Measured fluorescence is directly proportionate to the number of viable cells. A comparison of the total fluorescence of a drug-treated cell population to the fluorescence of a similar number of untreated cells yields a survival fraction. In brief, 2000 to 10,000 cells/well (depending on size and growth rates) are replicate plated into 60 wells of a 96-well tissue culture plate in 0.1 mL of whole medium and allowed to attach overnight. Drug(s) are then added in 0.05 mL of whole medium to the final concentrations indicated. Drugs (fenretinide, and various chain length L-threo-sphinganines) were tested both as single agents and in a 3:1 ratio of fenretinide:sphinganine. C18-L-threo-sphinganine, or “safingol,” was also tested and results shown for reference. There are 12 wells treated per drug concentration. Twelve wells receive drug vehicle-only to the appropriate final concentration and serve as controls for the plate. Cells are incubated for 96 hours at 37° C. in ambient air with 5% CO2. Fluorescein diacetate is then added to each well in 0.05 mL media to a final concentration of 8 microgram/mL. Cells are incubated for a further 15 minutes at 37° C. and 0.03 mL of 0.5% eosin Y is added to each well. Total fluorescence of viable cells is then measured by digital imaging microscopy. Results were graphed as the ratio of the fluoresecence of drug-treated wells to non-drug treated control wells (i.e., Survival Fraction). All tests were performed at least twice. Representative results are shown.
# (§2) The Combination Index (CI) is a term to describe mathematical modeling of the pharmacologic effects on cytotoxicity (cell death) of two drugs in combination based. Cytotoxic “synergy” is defined as a cell death affect which is greater than would be expected from a simple product of the single agent cytotoxicities alone (i.e. an “additive” effect). By Chou-Talalay analysis, a CI<0.9 on a Fraction Affected (“Fa”, i.e. fraction of cells killed) indicates synergy, with smaller numbers indicating greater synergy; a CI of 0.9-1.1 signifies an additive or near-additive effect; and a CI>1.1 means the drug combination is antagonistic.
# Fenretinide and L-threo-sphinganines tested in human Multiple Myeloma (a cancer of the blood and bone marrow) cell line, U-266.
# [2] = test system: A-172 Glioblastoma multiforme cell line; experiment: DIMSCAN cytotoxicity, fenretinide + L-threo-sphinganines 3:1 (Example B4); design: key to CI (Combination Index): Chou-Talalay CI: <0.9 synergy, 0.9-1.1 additive, >1.1 antagonism; conditions: 96 h
# Experimental: as §1, §2
# Fenretinide and L-threo-sphinganines tested in human Glioblastoma multiforme (brain cancer) cell line, A-172.
# [3] = test system: U-118 Glioblastoma cell line; experiment: DIMSCAN cytotoxicity, fenretinide + L-threo-sphinganines 3:1 (Example B5); design: key to CI (Combination Index): CI<0.9 synergy, 0.9-1.1 additive, >1.1 antagonistic; conditions: U-118 MG, 96 h
# Experimental: as §1, §2
# Fenretinide and L-threo-sphinganines tested in human Glioblastoma (brain cancer) cell line, U-118.
# [4] = test system: T98G Glioblastoma multiforme cell line; experiment: DIMSCAN cytotoxicity, fenretinide + L-threo-sphinganines 3:1 (Example B6); conditions: 96 h
# Experimental: as §1, §2
# Fenretinide and L-threo-sphinganines tested in human Glioblastoma multiforme (brain cancer) cell line, T98G.
# [5] = test system: SJ-GBM2 Glioblastoma multiforme cell line; experiment: DIMSCAN cytotoxicity, fenretinide + L-threo-sphinganines 3:1 (Example B7); design: key to CI (Combination Index): Chou-Talalay CI: <0.9 synergy, 0.9-1.1 additive, >1.1 antagonism; conditions: 96 h
# Experimental: as §1, §2
# Fenretinide and L-threo-sphinganines tested in human Glioblastoma multiforme (brain cancer) cell line, SJ-GBM2.
# [6] = test system: HT-29 colorectal adenocarcinoma cell line; experiment: DIMSCAN cytotoxicity, fenretinide + L-threo-sphinganines 3:1 (Example B10); conditions: 96 h
# Experimental: as §1, §2
# Fenretinide and L-threo-sphinganines tested in human colorectal adenocarcinoma (colon cancer) cell line, HT-29.
# [7] = test system: A-549 lung adenocarcinoma cell line; experiment: DIMSCAN cytotoxicity, fenretinide + L-threo-sphinganines 3:1 (Example B13); conditions: 96 h
# Experimental: as §1, §2
# Fenretinide and L-threo-sphinganines tested in human lung adenocarcinoma (lung cancer) cell line, A-549.
# [8] = test system: PANC-1 pancreatic adenocarcinoma cell line; experiment: DIMSCAN cytotoxicity, fenretinide + L-threo-sphinganines 3:1 (Example B18)
# Experimental: as §1, §2
# Fenretinide and L-threo-sphinganines tested in human pancreatic adenocarcinoma (pancreas cancer) cell line, PANC-1.
# [9] = 4-HPR 1.5 μM + L-threo-sphinganine 0.5 μM
# [10] = 4-HPR 3 μM + L-threo-sphinganine 1 μM
# [11] = 4-HPR 6 μM + L-threo-sphinganine 2 μM
# [12] = 4-HPR 9 μM + L-threo-sphinganine 3 μM
smiles,measurement,setting,value
"CCCCCCCCCCCCCCCCC[C@H](O)[C@@H](N)CO [C20, (2S,3S)-2-amino-1,3-icosanediol]",CI (Combination Index),[1]; [9],1.2
same,Fa (fraction affected),[1]; [9],0.259
same,CI (Combination Index),[1]; [10],1.3
same,Fa (fraction affected),[1]; [10],0.688
same,CI (Combination Index),[1]; [11],0.4
same,Fa (fraction affected),[1]; [11],0.999
same,CI (Combination Index),[1]; [12],>0.1
same,Fa (fraction affected),[1]; [12],1.000
same,CI (Combination Index),[2]; [9],2.8
same,Fa (fraction affected),[2]; [9],0.039
same,CI (Combination Index),[2]; [10],1.0
same,Fa (fraction affected),[2]; [10],0.594
same,CI (Combination Index),[2]; [11],0.6
same,Fa (fraction affected),[2]; [11],0.983
same,CI (Combination Index),[2]; [12],>0.1
same,Fa (fraction affected),[2]; [12],1.000
same,CI (Combination Index),[3]; [9],1.8
same,Fa (fraction affected),[3]; [9],0.645
same,CI (Combination Index),[3]; [10],0.5
same,Fa (fraction affected),[3]; [10],0.984
same,CI (Combination Index),[3]; [11],0.3
same,Fa (fraction affected),[3]; [11],0.998
same,CI (Combination Index),[3]; [12],0.3
same,Fa (fraction affected),[3]; [12],0.999
same,CI (Combination Index),[4]; [9],2.4
same,Fa (fraction affected),[4]; [9],0.397
same,CI (Combination Index),[4]; [10],0.2
same,Fa (fraction affected),[4]; [10],0.989
same,CI (Combination Index),[4]; [11],>0.1
same,Fa (fraction affected),[4]; [11],1.000
same,CI (Combination Index),[4]; [12],>0.1
same,Fa (fraction affected),[4]; [12],1.000
same,CI (Combination Index),[5]; [9],0.5
same,Fa (fraction affected),[5]; [9],0.055
same,CI (Combination Index),[5]; [10],0.6
same,Fa (fraction affected),[5]; [10],0.737
same,CI (Combination Index),[5]; [11],0.7
same,Fa (fraction affected),[5]; [11],0.998
same,CI (Combination Index),[5]; [12],0.3
same,Fa (fraction affected),[5]; [12],1.000
same,CI (Combination Index),[6]; [9],0.8
same,Fa (fraction affected),[6]; [9],0.287
same,CI (Combination Index),[6]; [10],0.6
same,Fa (fraction affected),[6]; [10],0.852
same,CI (Combination Index),[6]; [11],0.6
same,Fa (fraction affected),[6]; [11],0.971
same,CI (Combination Index),[6]; [12],0.4
same,Fa (fraction affected),[6]; [12],0.998
same,CI (Combination Index),[7]; [9],2.1
same,Fa (fraction affected),[7]; [9],0.000
same,CI (Combination Index),[7]; [10],4.1
same,Fa (fraction affected),[7]; [10],0.000
same,CI (Combination Index),[7]; [11],1.1
same,Fa (fraction affected),[7]; [11],0.017
same,CI (Combination Index),[7]; [12],1.1
same,Fa (fraction affected),[7]; [12],0.499
same,CI,[8]; [9],1.9
same,Fa,[8]; [9],0.136
same,CI,[8]; [10],1.9
same,Fa,[8]; [10],0.291
same,CI,[8]; [11],1.2
same,Fa,[8]; [11],0.653
same,CI,[8]; [12],0.1
same,Fa,[8]; [12],0.990
CCCCCCCCCCCC[C@H](O)[C@@H](N)CO [C15],CI (Combination Index),[1]; [9],1.2
same,Fa (fraction affected),[1]; [9],0.085
same,CI (Combination Index),[1]; [10],1.5
same,Fa (fraction affected),[1]; [10],0.241
same,CI (Combination Index),[1]; [11],1.2
same,Fa (fraction affected),[1]; [11],0.697
same,CI (Combination Index),[1]; [12],0.9
same,Fa (fraction affected),[1]; [12],0.929
same,CI (Combination Index),[2]; [9],23.7
same,Fa (fraction affected),[2]; [9],0.001
same,CI (Combination Index),[2]; [10],1.4
same,Fa (fraction affected),[2]; [10],0.378
same,CI (Combination Index),[2]; [11],0.4
same,Fa (fraction affected),[2]; [11],0.991
same,CI (Combination Index),[2]; [12],0.4
same,Fa (fraction affected),[2]; [12],0.998
same,CI (Combination Index),[3]; [9],0.4
same,Fa (fraction affected),[3]; [9],0.371
same,CI (Combination Index),[3]; [10],0.5
same,Fa (fraction affected),[3]; [10],0.577
same,CI (Combination Index),[3]; [11],0.4
same,Fa (fraction affected),[3]; [11],0.847
same,CI (Combination Index),[3]; [12],0.1
same,Fa (fraction affected),[3]; [12],0.989
same,CI (Combination Index),[4]; [9],1.3
same,Fa (fraction affected),[4]; [9],0.516
same,CI (Combination Index),[4]; [10],1.3
same,Fa (fraction affected),[4]; [10],0.683
same,CI (Combination Index),[4]; [11],1.0
same,Fa (fraction affected),[4]; [11],0.849
same,CI (Combination Index),[4]; [12],0.4
same,Fa (fraction affected),[4]; [12],0.962
same,CI (Combination Index),[5]; [9],1.7
same,Fa (fraction affected),[5]; [9],0.086
same,CI (Combination Index),[5]; [10],1.1
same,Fa (fraction affected),[5]; [10],0.301
same,CI (Combination Index),[5]; [11],0.9
same,Fa (fraction affected),[5]; [11],0.765
same,CI (Combination Index),[5]; [12],1.0
same,Fa (fraction affected),[5]; [12],0.953
same,CI (Combination Index),[6]; [9],2.0
same,Fa (fraction affected),[6]; [9],0.204
same,CI (Combination Index),[6]; [10],0.8
same,Fa (fraction affected),[6]; [10],0.660
same,CI (Combination Index),[6]; [11],1.1
same,Fa (fraction affected),[6]; [11],0.859
same,CI (Combination Index),[6]; [12],0.8
same,Fa (fraction affected),[6]; [12],0.976
same,CI (Combination Index),[7]; [9],1.9
same,Fa (fraction affected),[7]; [9],0.000
same,CI (Combination Index),[7]; [10],2.1
same,Fa (fraction affected),[7]; [10],0.000
same,CI (Combination Index),[7]; [11],0.9
same,Fa (fraction affected),[7]; [11],0.044
same,CI (Combination Index),[7]; [12],0.8
same,Fa (fraction affected),[7]; [12],0.342
same,CI,[8]; [9],2.9
same,Fa,[8]; [9],0.078
same,CI,[8]; [10],2.2
same,Fa,[8]; [10],0.205
same,CI,[8]; [11],1.7
same,Fa,[8]; [11],0.486
same,CI,[8]; [12],0.2
same,Fa,[8]; [12],0.978
